The subject of one experiment is OYE2p. To be noted: read-out: Enzyme / Y84V, 100 mM PBS pH 8.0, 30°C.
In a further experiment the target is AdhE (Escherichia coli, UniProt P0A9Q7). The experiment in a line: NADH consumption at […] nm, specific activity. Format: biochemical. The following applies: 5 mM substrate, 0.2 mM NADH, 100 mM PBS pH 8.0, 30°C.
For a further experiment, the target named is T1, YahK (Escherichia coli, UniProt P75691).
T1 sequence (P75691 1-349): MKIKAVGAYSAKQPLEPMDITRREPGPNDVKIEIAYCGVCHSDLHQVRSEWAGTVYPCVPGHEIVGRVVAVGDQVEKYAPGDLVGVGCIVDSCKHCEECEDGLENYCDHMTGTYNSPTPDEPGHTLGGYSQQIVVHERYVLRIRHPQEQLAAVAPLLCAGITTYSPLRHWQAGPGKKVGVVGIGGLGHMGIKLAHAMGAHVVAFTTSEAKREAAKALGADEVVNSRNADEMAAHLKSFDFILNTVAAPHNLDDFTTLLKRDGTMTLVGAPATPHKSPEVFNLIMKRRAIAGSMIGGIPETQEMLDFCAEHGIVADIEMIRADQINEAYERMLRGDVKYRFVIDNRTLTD
Briefly: NADH consumption at […] nm, specific activity. It counts as biochemical. To be noted: 5 mM substrate, 0.2 mM NADH, 100 mM PBS pH 8.0, 30°C.

Structures are written as SMILES. Where two headings read alike, the source gives them in different places.

Chain of AdhE (P0A9Q7 2-891): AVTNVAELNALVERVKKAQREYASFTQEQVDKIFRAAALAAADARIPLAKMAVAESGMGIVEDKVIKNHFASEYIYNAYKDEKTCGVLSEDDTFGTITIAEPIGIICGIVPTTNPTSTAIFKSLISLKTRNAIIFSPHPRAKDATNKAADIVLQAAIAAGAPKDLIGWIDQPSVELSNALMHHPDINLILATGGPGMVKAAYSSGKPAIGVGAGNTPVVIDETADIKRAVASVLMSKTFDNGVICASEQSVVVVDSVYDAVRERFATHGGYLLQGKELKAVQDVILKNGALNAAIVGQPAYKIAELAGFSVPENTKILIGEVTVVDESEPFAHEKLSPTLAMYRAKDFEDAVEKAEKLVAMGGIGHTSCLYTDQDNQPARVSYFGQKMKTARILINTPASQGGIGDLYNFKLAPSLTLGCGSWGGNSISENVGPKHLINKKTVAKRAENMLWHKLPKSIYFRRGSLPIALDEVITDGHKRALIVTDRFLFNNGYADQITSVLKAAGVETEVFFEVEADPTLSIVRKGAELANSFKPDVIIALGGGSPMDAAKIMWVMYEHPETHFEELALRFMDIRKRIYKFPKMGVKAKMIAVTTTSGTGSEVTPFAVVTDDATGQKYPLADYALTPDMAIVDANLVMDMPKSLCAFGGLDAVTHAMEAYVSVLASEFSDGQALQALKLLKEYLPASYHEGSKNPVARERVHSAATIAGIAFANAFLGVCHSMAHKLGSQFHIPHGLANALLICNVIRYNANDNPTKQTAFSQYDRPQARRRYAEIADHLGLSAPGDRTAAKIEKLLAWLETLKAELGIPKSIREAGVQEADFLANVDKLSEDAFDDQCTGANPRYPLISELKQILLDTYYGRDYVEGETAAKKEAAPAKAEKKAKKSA

In the case of `NC(=O)C1=CN([C@@H]2O[C@H](COP(=O)(O)OP(=O)(O)OC[C@H]3O[C@@H](n4cnc5c(N)ncnc54)[C@H](O)[C@@H]3O)[C@@H](O)[C@H]2O)C=CC1` [NADH], the Km in the experiment with OYE2p (5 mM (E/Z)-citral) amounted to 27 ± 8 µM.
As to `CC(C)=CCC/C(C)=C/C=O` [(E)-citral], the “NADH consumption at 340 nm, specific activity” value at AdhE is “these enzymes have catalytic activity for the tested substrates”. In the experiment on OYE2p (0.2 mM NADH), the Km is 107 ± 26 µM.
As for `CC(C)=CCC/C(C)=C\C=O` [(Z)-citral], in the experiment with OYE2p (0.2 mM NADH), the Km was determined as 326 ± 84 µM.
`CC(C)=CCCC(C)CC=O` (stereo not drawn) [citronellal]: the “NADH consumption at 340 nm, specific activity” value is “approximately twice higher than that of AdhE and YahK” on AdhE; “approximately twice higher than that of AdhE and YahK” at YahK.

(Values after PMC9049607 (Microbial Biotechnology, 2021).)
